Drawing on PMC6934184, “Selective DNA-PKcs inhibition extends the therapeutic index of localized radiotherapy and chemotherapy” (The Journal of Clinical Investigation, 2019), this text covers inhibition for one compound.

This assay has as its target T1, FGFR3 G697C (Homo sapiens, UniProt P22607, G697C).
T1 construct: purchased Thermo Fisher Scientific (Life Technologies) SelectScreen
Put plainly: SelectScreen LanthaScreen. It is filed as binding. Conditions: read-out: % displacement. The method in brief: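 NU5455 was profiled across the SelectScreen Broad panel of kinase activity and binding assays. Z'LYTE reactions such as CSF1R ran at apparent Km ATP, while the Adapta CAMK1 assay used ATP listed as 10. Values are given as percent.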

T1 sequence (P22607 23-806 G697C): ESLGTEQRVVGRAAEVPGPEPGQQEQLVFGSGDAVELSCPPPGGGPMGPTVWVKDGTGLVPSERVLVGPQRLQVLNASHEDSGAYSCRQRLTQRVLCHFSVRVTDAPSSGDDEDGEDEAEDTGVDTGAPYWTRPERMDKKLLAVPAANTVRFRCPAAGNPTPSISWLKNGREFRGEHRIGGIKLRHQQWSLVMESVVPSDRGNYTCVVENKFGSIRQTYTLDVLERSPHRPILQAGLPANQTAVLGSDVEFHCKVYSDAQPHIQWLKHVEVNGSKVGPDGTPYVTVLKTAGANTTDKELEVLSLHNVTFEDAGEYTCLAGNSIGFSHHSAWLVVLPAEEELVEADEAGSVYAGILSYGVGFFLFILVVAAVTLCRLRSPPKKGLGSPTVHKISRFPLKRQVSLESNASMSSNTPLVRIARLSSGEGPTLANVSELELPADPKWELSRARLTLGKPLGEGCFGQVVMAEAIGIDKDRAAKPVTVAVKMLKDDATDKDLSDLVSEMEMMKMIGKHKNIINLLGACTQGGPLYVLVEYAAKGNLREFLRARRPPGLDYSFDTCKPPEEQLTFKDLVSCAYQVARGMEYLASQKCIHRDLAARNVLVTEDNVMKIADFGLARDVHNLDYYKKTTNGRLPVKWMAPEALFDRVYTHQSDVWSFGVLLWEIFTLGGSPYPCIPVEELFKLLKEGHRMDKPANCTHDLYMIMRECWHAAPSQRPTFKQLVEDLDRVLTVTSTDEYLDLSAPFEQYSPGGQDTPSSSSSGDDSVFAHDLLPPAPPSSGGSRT

Turning to `CN(C(=O)CN1CCOCC1)c1ccc2sc3c(-c4cccc5c(=O)cc(N6CC7CCC(C6)O7)oc45)cccc3c2c1` [NU5455], the inhibition at 1 µM amounted to 3.1%.
